US9562899B2, “Method of detecting OXA-048 carbapenemase producing bacteria” (BIOMÉRIEUX, priority 2012, dated 2017)

Experiments:
Assay type in all cases: cell-based, Enterobacteriaceae
VIM strains = details: class B CPEs of VIM type; proportionally to the EDTA concentration used
Source text: (§1) Optimization of the Detection Specificity by Introducing Specific Inhibitors Inhibition of Class B Strains (NDM, VIM, IMP) by Adding EDTA
(§2) Identical to that used to determine the temocillin MICs by agar dilution (example 1).
(§3) For each temocillin concentration, the following concentrations of active EDTA will be tested in the form of disodium EDTA: 0, 1.77, 2.12, 2.47 and 2.83 mmol/l.
(§4) Method: identical to the method used in example 1.

[1] = test system: strains with impermeability-mediated resistance (IR); details: strains with impermeability-mediated resistance to carbapenems (IR)
Source text: as §1, §2, §3, §4

NDM-1 strains = details: class B CPEs of NDM type; proportionally to the EDTA concentration used
Source text: as §1, §2, §3, §4

O=C(O)CN(CCN(CC(=O)O)CC(=O)O)CC(=O)O [EDTA]
effect of EDTA on temocillin MIC (VIM strains): decrease in their MIC
effect of EDTA on temocillin MIC [1]: slight increase in the MICs
effect of EDTA on temocillin MIC (NDM-1 strains): decrease in their MIC
